Laboratory results as given in US20070003480A1, “Liposomal composition comprising haptotactic peptides” (Hapto Biotech, Inc., priority 2002, published 2007).
Entries after “also recorded” stand apart in the source; their conditions may differ.

Columns and labels:
BAEC = assay: Cell adhesion (haptotaxis) assay, Sepharose bead-bound ligand; assay type: cell-based, bovine; settings: ligand bound to Sepharose beads
Method: (§1) The attachment of Sepharose beads (SB)-ligand to cells in nearly confluent cultures grown on plastic was measured as previously described (Gorodetsky R. et al. 1998. J Lab Clin Med 131, 269-280; Gorodetsky R. et al. 1999. J Invest Dermatol 112:866-872). Essentially, about 20-150 μl of suspended (50% v/v) SB-Haptide or SB-fibrinogen were added to near confluent cell cultures in 6-24 well plates and dispersed by gentle shaking for 1 min. The plates were then incubated for up to 4 days. After one day the number of SB tethered to cell layer was counted with an inverted phase or Numarsky microscopy. Typically, ˜300 SB (but not less then 200) were counted in each well, and the ratio of the number of SB attached to the cells in each well, was calculated relative to the total number of SB. At least 3 wells were measured for each variant and each experiment was repeated at least 3 times.

HF = assay: as above; assay type: cell-based, human; settings: ligand bound to Sepharose beads
Method: as §1

human fibroblasts (HF) = assay: Uptake of FITC-labelled peptides by cells, confocal laser fluorescence microscopy; assay type: cell-based; settings: visual score (0-4) from fluorescence micrographs; FITC-labelled ligand 100 μg/ml (40 μM), 1 h, 37° C.
Method: Fluorescent microscopy was carried out with Olympus or Nikon fluorescence microscopes. Confocal laser microscopy was done with a computerized Zeiss Confocal Axiomate microscope (LSM410) with multiple excitation wavelengths. Peptides were tagged with fluorescein isothiocyanate (FITC) for visualization. For examination of ^FITCpeptides uptake by human fibroblasts (HF) the cells were grown on glass coverslips to near confluence and then incubated with 100 μg/ml (40 μM) ^FITCpeptides at 37° C. After 1 h, the cells were washed and fixed in 0.5% buffered glutaraldehyde. Coverslips with the cells were placed on a microscope slide with PBS-glycerol 80% with 2% DABCO and examined. The representative fields of cells were visualized by Numarski optics and confocal scans of cell fluorescence intensity in 1 μm slices were recorded at the FITC wavelength (excitation 488 nm, emission 515 nm) and later reconstructed. Uptake of ^FITCligand by HF was scored visually (0-4). The fluorescent haptotactic peptides were clearly seen taken up by the HF cells, and the nuclei remained relatively free of ^FITCHaptide (FIGS. 1A & B). […] By contrast, the uptake of the control ^FITCCα peptide by the cells was negligible.

Human fibroblasts = assay: Haptide-mediated liposome uptake by human fibroblasts, fluorescence microscopy; assay type: cell-based; settings: for liposome uptake into the cytoplasm of fibroblasts: rhodamine-loaded liposomes, FIG. 4
Method: (§2) Human fibroblasts or bovine aortic endothelial cells were seeded and grown in CO2 incubator for 24 hours in a 4-chamber cell culture coverslip slide (source) used for microscopy. Then, they were exposed to either free ^FITCHaptide or to a ^FITCHaptotactic Peptide-Liposomal composition. Two liposome types were examined, namely liposomes composed of hydrogenated phosphatidyl serine, PEG and cholesterol, containing the fluorescent dye Rhodamine; and clinical grade liposomes containing the anti-cancer drug doxorubicin (Doxil liposomes). Both rhodamine and doxorubicin are fluorescent compounds. Thus, the liposome penetration and distribution within cells could be tracked by fluorescence microscopy or FACS. Typically, 20 μl of fluorescent Haptotactic Peptide-Liposomal composition were mixed with 180 μl PBS and added to the cell chamber. Incubation was continued for up to 1 hour at 37 or 4° C. The incubation was stopped at different time points by two subsequent washes with PBS, followed by fixation with 500 μl of 4% formaldehyde for 1 hr. The samples were then washed again with PBS. Coverslips with the fixed cells were covered by PBS-glycerol 80%, DABCO 2%, and an additional coverslip for microscopic examination.

[1] = system: bovine aortic endothelial cells; assay: Haptide-mediated Doxil liposome uptake by bovine aortic endothelial cells, fluorescence microscopy; assay type: cell-based; settings: Doxil (doxorubicin-loaded) liposomes; FIG. 5
Method: as §2

[2] = Particle size by dynamic light scattering; assay type: physicochemical; settings: Haptide solution 1 mg/mL, 0.45 μm filtered, 25° C., mean of three measurements
Method: It has been previously observed by gel filtration that haptides tend to form aggregates (Gorodetsky R, Vexler A, Shamir M, An J, Levdansky L, Shimeliovich I, Marx G. Exp Cell Res. 287:116-129 (2003). A solution of the Haptide preCγ (1 mg/mL) was passed through a 0.45 μm filter and then measured by dynamic light scattering at 25° C. The average particle size (a mean value of three measurements) was ˜145 nm (FIG. 3), showing that such particle is an aggregate of few hundreds of preCγ monomers.
Similarly, Doxil liposomes were measured and observed to have a mean diameter of 80 nm. However, when the preCγ-liposomal composition was formed, the preCγ Haptides aggregates disappeared in correlation with the liposome/Haptide weight ratio (FIG. 3). […] At a doxil/haptide weight ratio of >10^−2, the almost totally all the Haptides aggregates were solubilized within the liposomes as indicated by the disappearance of larger Haptide particles, forming the haptotactic-peptide liposomal composition.

Substance | % Haptotaxis (BAEC, 1 day) (BAEC) [%] | % Haptotaxis (HF, 1 day) (HF) [%] | Cell Uptake (HF) (human fibroblasts (HF)) | concentration-dependent liposome uptake by human fibroblasts (Human fibroblasts; Doxorubicin-loaded liposomes, varying Haptide concentration, FIG. 6) | liposome uptake into the cytoplasm of fibroblasts (Human fibroblasts) | liposome uptake into endothelial cells [1] | average particle size [2] [nm]
KGSWYSMRKMSMKIRPFFPQQ (Equivalent to the c-terminus of fibrinogen beta-chain) [Cβ] | 100 | 100 | +4 | increased liposome uptake; also recorded: directly correlated to the Haptide (Cβ) concentration | facilitated liposome uptake | facilitated liposome uptake | –
KTRWYSMKKTTMKIIPFNRL (Equivalent to the c-terminus of fibrinogen pre-gama chain) [preCγ] | – | – | – | – | facilitated liposome uptake | facilitated liposome uptake | ~145
RGADYSLRAVRMKIRPLTVTQ (Equivalent to the c-terminus of fibrinogen alphaE chain) [CαE] | 75 | 60 | +3 | – | Low induction | efficient in enhancing doxorubicin-liposome (Doxil) uptake | –
fibrinogen | 100 | 100 | +2 | – | – | – | –
